From patent publication US5929032A, “Method for treating Schwann and colon cells in vitro” (Amgen Inc., priority 1996, dated 1999)
Entries after “also recorded” stand apart in the source; their conditions may differ.

Assays:
[1] = system: LIM 1215 cells; assay: Marker protein expression, ACAS confocal image cytometer; assay type: cell-based, human; parameters: key to Marker Protein Expression: CEA / Marker Protein Expression: Integrin β4 / Marker Protein Expression: Villin: increased expression (+); down-regulated (-); unchanged (0)
From the text: Additional confirmation of the importance of this seven amino-acid sequence was obtained by scoring for various marker proteins on the LIM 1215 cells. An ACAS confocal image cytometer was used to detect a number of markers on the cells without detaching the cells from the culture dish, as is normally done for fluorescence activated cell sorting (FACS) analysis. […] The expression of a number of other markers was unchanged (0) by treatment with EGF-β. Analogous to the previous results characterizing gross, observable morphology changes, neither EGF-α nor EGF-β/α changed the levels of these marker proteins, while EGF-α/β changed the expression of the marker proteins in a manner similar to that seen with EGF-β.

[2] = system: Schwann cells; assay: Schwann cell proliferation (BrdU incorporation, NGFR staining); assay type: cell-based, rat; details: for percent of Schwann cells proliferating: BrdU for six hours after 24 h; for Schwann cell proliferation, comparison in words: versus EGF-β/α
Description: The sciatic nerve from neonatal rats was used to generate a primary culture of Schwann cells. The cells were plated overnight in 10% serum without exposure to any growth factor. The following day, EGF-β, EGF-α/βand EGF-β/α were added at the concentrations in nanograms per milliliter(ng/ml) shown in Table 2, below. Twenty four hours later, BrdU was added to each test sample for six hours. BrdU is a thymidine analog which is incorporated into the DNA of dividing cells and can be detected by standard immunochemistry procedures. This agent thus provides a means for determining expansion of the total amount of DNA in a test sample and is a measure of whether cell proliferation has occurred. Upon the completion of the test period, Schwann cells were fixed and analyzed immunohistochemically. The cells were first stained for nerve growth factor receptor (NGFR), which is a known marker for Schwann cells in culture, followed by staining for BrdU. Cell counting was carried out as follows: in a given microscope field of view, all recognizable Schwann cells were counted, then the number of cells showing positive for BrdU staining were also counted. For each test sample (or well) two or three fields were counted, amounting to about 200 to 300 Schwann cells in all. The result is expressed in Table 2 as the percent of Schwann cells proliferating.

[3] = system: LIM 1215 human colon epithelial cells; assay: Morphogenic activity: fluorescent actin staining (NBD phalloidin), confocal microscope; assay type: cell-based; details: 420 picomolar peptide, three days, serum-free media
Description: c) Staining of LIM 1215 human colon cells with fluorescent dye. LIM 1215 cells were grown in RPMI-1640 media supplemented with 5% FBS, 1 μg/ml of bovine insulin, 10 μm of alpha thioglycerol, and 1× PSG. At the time of assay, the cells were more than 30% confluent and were proliferating rapidly. The cells were seeded into 24-well plates at 25,000 cells/well in serum-free media (McCoy's-5A, supplemented with 4 μg/ml of transferrin, 10 μg/ml of insulin, 10 mM of selenic acid, […], and 0.03% BSA). Test peptides were added at a concentration of 420 picomolar immediately on day zero; the total volume was 1.0 ml. Controls included no treatment and serial dilutions of FBS. The 24-well plates were then incubated for three days at 37° C. and 5% CO2, after which the media were removed by aspiration and the cells were washed in 1.0 ml of PBS with 0.5% BSA. All subsequent washings were performed with this buffer. The cells were then fixed in Orthopermeafix (Ortho Chemicals Co.) for thirty minutes at room temperature, and were washed twice. Then 200 μl of a 10 nM NBD phalloidin fluorescent dye solution in PBS were added and the cells were incubated in the dark (wrapped in aluminum foil) for thirty minutes at room temperature. The cells were washed twice, and inspected using a confocal microscope.
d) Morphogenic activity of peptides on colon epithelial cells. Upon treatment of LIM 1215 cells with the EGF-β peptide, it was evident that the morphology of the cells changed dramatically. […] In the absence of treatment, the cells appeared small and rounded. […] Because the cells were proliferating rapidly in 5% FBS serum-containing media (FIG. 3), the unique morphology caused by the EGF-β peptide could not have been due solely to its ability to stimulate proliferation. Moreover, the difference in morphogenic activities between EGF-β and EGF-α must have originated in the last sixteen amino acids of the C-terminus, as this is the only difference in sequence between the two peptides.
Further localization of morphogenic activity was obtained by use of the chimeric peptides, EGF-β/α and EGF-α/β. […] Again, the only difference in sequence between these two peptides is the last seven amino acids of the C-terminal portion.

[4] = system: LIM 1215 human colon epithelial cells; assay: Crystal violet proliferation assay; assay type: cell-based; details: three days, low serum (0.05%) media, crystal violet absorbance at 595 nm
From the text: FIG. 2. This figure is a graphical representation of the proliferative effect of the peptides of the invention on human colonic epithelial cells in vitro. These peptides are designated in the figure as EGF-β (SEQ ID NO: 2, above), represented by the closed circles, and as EGF-α/β (SEQ ID NO: 1, above), represented by the open circles. For comparison, two other peptides of equal length are included, designated as EGF-α and EGF-β/α, and represented by the closed squares and open squares, respectively. The latter two are homologs based on the EGF domain of extracellular NDF-heregulins and consist of the amino acid sequences shown further below in this text (SEQ ID NOS: 3 and 4, respectively). Proliferation is measured with a crystal violet dye which stains the cell protein and is indicative of cell number. […] The picomolar (pM) concentration of peptide used to treat the cells is shown on the horizontal axis.
a) Crystal Violet Proliferation Assay. The human colon epithelial cell line, LIM 1215 (Whitehead, R. H. et al., J. Natl. Cancer Inst. 4:759-765, 1985) was grown in RPMI-1640 media supplemented with 5% FBS, 1 μg/ml of hydrocortisone, 1 μg/ml of bovine insulin, 10 μM of alpha thioglycerol, and 1X PSG (0.292 mg/ml of 1-glutamine, 100 units/ml of penicillin G, and 100 μg/ml of streptomycin sulfate). At the start of the assay, the cells were 30% confluent and were proliferating rapidly. Cells were released by trypsin, washed with PBS, and seeded into 96-well plates at 5000 cells/well in low serum (0.05%) media (McCoy's-5A supplemented with 4 μg/ml of transferrin, 10 μg/ml of insulin, 10 mM of selenic acid, 4 nM of triiodothyronine, and 0.03% BSA). Dilutions of test peptide were added immediately on day zero; the total volume was 100 μl. Controls included no treatment and serial dilutions of FBS. The 96-well plates were then incubated for three days at 37° C. in a 5% CO2 atmosphere. The media were removed by aspiration and 30 μl of 2% crystal violet (Difco) in methanol was added to the cells for fifteen minutes of staining. Excess dye was washed away with distilled water. To each well 100 μl of 0.04N HCL in isopropanol was added and the dye was resolubilized by mixing. Absorbance was determined at 595 nm and the values were plotted as fold-stimulation over background (or no treatment).
b) Stimulation of colon cell proliferation. […] The chimeric peptides helped to pinpoint this determinant of activity to the seven residues corresponding to amino acids 222-228 of full length extracellular NDF/heregulin. […]

[5] = biological target: endoproteinase Lys-C (Lysobacter enzymogenes, UniProt Q7M135); assay: Digestion by endoproteinase Lys-C (peptide mapping); details: cleavage at lysine residue at position 211
Chain of endoproteinase Lys-C (Q7M135 whole entry, the tested form may be a part): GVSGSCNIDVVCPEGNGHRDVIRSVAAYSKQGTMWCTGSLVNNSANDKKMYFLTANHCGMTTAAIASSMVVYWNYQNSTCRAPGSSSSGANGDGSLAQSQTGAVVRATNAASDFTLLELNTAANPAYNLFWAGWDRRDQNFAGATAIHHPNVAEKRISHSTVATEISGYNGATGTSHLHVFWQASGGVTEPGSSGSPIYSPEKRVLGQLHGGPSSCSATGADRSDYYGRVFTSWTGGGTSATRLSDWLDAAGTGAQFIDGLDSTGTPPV
From the text: The initial studies referred to here utilized peptides based solely on sequences of the EGF-like domain of the aforementioned α2 and β1 forms of NDF/heregulin, that is to say, that portion of the extracellular protein from amino acid residue 177 to amino acid residue 228 (see FIG. 1 herein). […] The reason for this difference was not initially apparent. However, during peptide mapping studies of the EGF-like domains of NDF/heregulins, it was discovered that the α and β forms cleaved (degraded) at different rates when subjected to digestion by endoproteinase Lys-C. […] Moreover, this phenomenon seemed limited to the lysine residue at position 211. There was no apparent difference in the rate of cleavage between α and β at any other lysine residues in the N-terminal end of the EGF-like domain.

[6] = peptide concentration 0.1 ng/ml
[7] = peptide concentration 100 ng/ml

Substance	Marker Protein Expression: CEA [1]	Marker Protein Expression: Integrin β4 [1]	Marker Protein Expression: Villin [1]	percent of Schwann cells proliferating [2, 6]	percent of Schwann cells proliferating ([2]; peptide concentration 1 ng/ml)	percent of Schwann cells proliferating ([2]; peptide concentration 10 ng/ml)	percent of Schwann cells proliferating [2, 7]	Schwann cell proliferation, comparison in words [2]	morphological (morphogenic) changes of LIM 1215 cells [3]	proliferation of LIM 1215 cells (fold stimulation, FIG. 2) [4]	rate of cleavage by endoproteinase Lys-C [5]	expression of a number of other markers [1]
EGF-α/β: chimeric 52-residue peptide SHLVK-(A)-QNYVMAS; α177-221/β222-228 of extracellular NDF/heregulin EGF-like domain (SHLVKCAEKEKTFCVNGGECFMVKDLSNPSRYLCKCQPGFTGARCQNYVMAS)	+	+	-	1%	10%	10%	17%	stimulated the proliferation of Schwann cells to a significantly greater extent than EGF-β/α	evidence of cell development and maturation is seen; also recorded: caused apparent morphogenic changes	best results for cell proliferation; also recorded: displayed significant mitogenic activity		
EGF-α: comparison 52-residue peptide SHLVK-(A)-TENVPMK; EGF-like domain (residues 177-228) of NDF/heregulin α2 (SHLVKCAEKEKTFCVNGGECFMVKDLSNPSRYLCKCQPGFTGARCTENVPMK) [reference compound]	0	0	0						did not produce the same morphogenic changes	Some proliferation was obtained; also recorded: not as potent a mitogen	faster enzymatic cleavage	
EGF-β/α: comparison chimeric 52-residue peptide SHLVK-(B)-TENVPMK; β177-221/α222-228 of extracellular NDF/heregulin (SHLVKCAEKEKTFCVNGGECFMVKDLSNPSRYLCKCPNEFTGDRCTENVPMK) [reference compound]	0	0	0	1%	2%	5%	10%		appear unchanged; also recorded: did not produce any noticeable change	No effect was seen; also recorded: did not show any detectable effect		
EGF-β: 52-residue peptide SHLVK-(B)-QNYVMAS; EGF-like domain (residues 177-228) of NDF/heregulin β1 (SHLVKCAEKEKTFCVNGGECFMVKDLSNPSRYLCKCPNEFTGDRCQNYVMAS)	+	+	-	7.5%	13%	14%	19%	stimulated the proliferation of Schwann cells to a significantly greater extent than EGF-β/α	Evidence of cellular morphological changes is seen; also recorded: noticeable change in morphology, becoming enlarged and assuming a cobblestone-like appearance	best results for cell proliferation; also recorded: stimulated the proliferation of LIM 1215 cells	more resistant to this enzyme and cleaved at a slower rate	unchanged
